Earlier results in patent publication US9062031B2, “Method of preparing polymorphic pure form A of bazedoxifene acetate” (SANDOZ AG, priority 2010, dated 2015).

Key:
[1] = solvent or solvent mixture, for example ethylacetate and ethanol
[2] = aqueous and organic solvent systems

SMILES: Cc1c(-c2ccc(O)cc2)n(Cc2ccc(OCCN3CCCCCC3)cc2)c2ccc(O)cc12 [Bazedoxifene x acetate form A, 1-[[4-[2-(Hexahydro-1H-azepin-1-Dethoxy]phenyl]methyl]-2-(4-hydroxyphenyl)-3-methyl-1H-indol-5-ol monoacetate]
- Conversion to form B upon contact with solvent [1]: can easily convert to form B
- Solubility compared with form B [2]: higher solubility than form B
